How the values were obtained:
[1] = target: T1, MTP (Bos taurus, UniProt P55156); experiment: MTP triglyceride transfer activity; assay type: biochemical; conditions: 20 to 50 μM
T1 sequence (P55156 12-887): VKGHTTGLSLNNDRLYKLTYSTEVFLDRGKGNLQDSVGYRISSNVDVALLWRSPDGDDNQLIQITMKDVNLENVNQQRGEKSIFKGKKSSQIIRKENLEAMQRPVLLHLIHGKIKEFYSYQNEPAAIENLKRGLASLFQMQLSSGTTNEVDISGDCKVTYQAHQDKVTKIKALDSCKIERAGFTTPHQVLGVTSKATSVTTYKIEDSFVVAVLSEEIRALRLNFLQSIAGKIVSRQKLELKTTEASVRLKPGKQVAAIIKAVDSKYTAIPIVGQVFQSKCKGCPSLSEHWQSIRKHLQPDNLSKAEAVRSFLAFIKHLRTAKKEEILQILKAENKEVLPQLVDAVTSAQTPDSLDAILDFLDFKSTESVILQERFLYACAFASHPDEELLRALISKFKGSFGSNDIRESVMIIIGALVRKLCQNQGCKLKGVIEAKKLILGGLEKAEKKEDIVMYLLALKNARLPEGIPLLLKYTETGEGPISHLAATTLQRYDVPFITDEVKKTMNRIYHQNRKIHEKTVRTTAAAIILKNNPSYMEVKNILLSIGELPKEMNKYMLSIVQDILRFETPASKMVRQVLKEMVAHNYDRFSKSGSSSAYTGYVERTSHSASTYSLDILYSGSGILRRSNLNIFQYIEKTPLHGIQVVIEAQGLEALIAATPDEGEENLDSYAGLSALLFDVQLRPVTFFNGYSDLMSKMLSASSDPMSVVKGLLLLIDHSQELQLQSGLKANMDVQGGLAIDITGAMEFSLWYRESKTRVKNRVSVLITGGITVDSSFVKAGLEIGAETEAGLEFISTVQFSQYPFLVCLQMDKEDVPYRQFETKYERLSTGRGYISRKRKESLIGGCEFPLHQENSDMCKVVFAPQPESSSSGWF
T1 sequence (P05307 21-510 partner): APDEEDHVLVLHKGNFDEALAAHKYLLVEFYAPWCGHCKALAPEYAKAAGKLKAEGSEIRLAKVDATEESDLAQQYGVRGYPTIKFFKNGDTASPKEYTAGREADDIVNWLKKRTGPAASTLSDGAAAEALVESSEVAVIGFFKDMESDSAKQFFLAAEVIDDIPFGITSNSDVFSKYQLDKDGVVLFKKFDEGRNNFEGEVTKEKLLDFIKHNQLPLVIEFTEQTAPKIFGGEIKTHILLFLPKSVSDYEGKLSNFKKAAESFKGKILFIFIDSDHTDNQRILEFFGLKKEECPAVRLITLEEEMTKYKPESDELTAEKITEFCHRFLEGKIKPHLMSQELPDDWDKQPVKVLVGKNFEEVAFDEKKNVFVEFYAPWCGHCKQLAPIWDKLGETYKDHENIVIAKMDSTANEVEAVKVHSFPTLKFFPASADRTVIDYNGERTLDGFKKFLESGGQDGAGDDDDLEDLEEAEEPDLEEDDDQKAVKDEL
Experimental: (§1) Studies were performed to determine whether apoB/MTP binding was required for secretion of apoB-containing lipoproteins. Several compounds were screened. In the absence of any test compound, 15.47 fmol of low density lipoproteins (LDL)which contain ApoB was bound to immobilized MTP. Two test compounds, AGI-3 and AGI-S17, inhibited 70 to 90% of the binding at 40-50 μM concentrations. […] The effect of these same compounds on MTP's lipid transfer activity was also evaluated. BMS-200150 inhibited triglyceride transfer activity by 60% at concentrations in the range of 20 to 50 μM. AGI-3 inhibited only 20-30% of the activity at these same concentrations.

[2] = target: T2, LDL/MTP binding (Bos taurus, UniProt P55156); experiment: Effect of compounds on binding of LDL to immobilized MTP (ELISA); set-up: species or system human
T2 sequence (P55156 12-887): T1 sequence (P55156 12-887)
T2 sequence (P05307 21-510 partner): T1 sequence (P05307 21-510 partner)
Experimental: as §1
ELISA plates coated in triplicate with purified heterodimeric MTP (1 μg/well) were incubated with human LDL (1 μg/well) in the presence of indicated concentrations of various compounds. Microtiter wells were washed three times with PBS-Tween and apoB bound was quantitated by a sandwich ELISA (Hussain, M. M. et al. 1995 Arterioscl. Thronb. Vasc. Biol. 15:485-494). In parallel, a standard curve for apoB was generated by coating wells with a monoclonal antibody, 1D1, and incubating with different concentrations of LDL (0-14 ng/well) as previously described (Hussain, M. M. et al. 1995 Arterioscl. Thromb . Vasc. Biol. 15:485-494).

[3] = target: T2, LDL/MTP binding; experiment: Effect of lipid vesicles on binding of LDL to immobilized MTP; conditions: for effect of inclusion in PC vesicles on PC-stimulated binding of LDL to MTP: added to PC vesicles
Experimental: The effect of lipids on the binding of MTP with apoB was also examined. Phosphatidylcholine (PC) and sphingomyelin increased the interactions by 2 and 1.5 times respectively. In similar studies, PC vesicles at a concentration of 2.4 mM increased the binding of LDL to MTP by 2 to 4 times. As a control, the effect of phospholipids on the binding of LDL to the monoclonal antibody 1D1 and polyclonal antibodies was studied. 1D1 binds to a portion of the MTP specific binding site on apoB. This antibody also recognizes all subclasses of VLDL and LDL, as well as delipidated apoB. […] The effect of PC vesicles on the interaction of apoB to polyclonal antibodies was studied by incubating immobilized LDL with the antibodies both in the presence and absence of PC. PC vesicles had no effect on binding.
To study the effect of triglycerides (TG) on apoB/MTP specific binding, PC vesicles or emulsions containing two different concentrations of TG were prepared and their effect on LDL binding to MTP was compared with those of PC vesicles with no TG.
The effect of different lipids was studied in more detail using PC-based vesicles (Table 3). Again, PC vesicles increased the binding of LDL to MTP by 3-fold.
Required amounts of lipids in chloroform were added to a glass vial and the solvent was evaporated under nitrogen gas. A calculated amount of the buffer (15 mM Tris-HCl, 1 mM EDTA, 0.02% sodium azide, pH 7.4) was added, and the contents were sonicated (setting 5, output 50-60%) on ice until the solution was mostly clear. The vesicles were then centrifuged at 3500 rpm for 15 minutes, 4° C., and the supernatant used to assay the effect of vesicles on binding.
LDL (20 nM) was incubated with immobilized MTP (1 μg/ml) in the presence and absence of different concentrations of PC or sphingomyelin vesicles for 2 hours at 37° C. and the amount of LDL bound quantitated. The amount of LDL bound in the absence of lipid vesicles was used as 100%. Parallel experiments were also performed wherein LDL (78 pM) was incubated with immobilized monoclonal antibody, 1D1, instead of MTP. LDL (20 nM) was also incubated with immobilized MTP in the presence of different concentrations of PC, PC/TG (molar ratio 400:1) vesicles, or PC/TG dispersions (molar ratio 1:1) for 2 hours at 37° C., and the amount of apoB bound was quantitated by ELISA.

[4] = target: T3, immobilized LDL (Homo sapiens, UniProt P04114); experiment: Binding of apoA-I and apoA-I/lipid complexes to immobilized LDL
Experimental: The binding of apoA-I and apoA-I/lipid complexes to immobilized LDL was examined. ApoA-I incubated with or without lipid vesicles was subjected to ultracentrifugation and apoA-I/lipid complexes were isolated. Binding of apoA-I and apoA-I/lipid complexes to immobilized LDL was then examined.
Target sequence in this assay (P04114 28-4563): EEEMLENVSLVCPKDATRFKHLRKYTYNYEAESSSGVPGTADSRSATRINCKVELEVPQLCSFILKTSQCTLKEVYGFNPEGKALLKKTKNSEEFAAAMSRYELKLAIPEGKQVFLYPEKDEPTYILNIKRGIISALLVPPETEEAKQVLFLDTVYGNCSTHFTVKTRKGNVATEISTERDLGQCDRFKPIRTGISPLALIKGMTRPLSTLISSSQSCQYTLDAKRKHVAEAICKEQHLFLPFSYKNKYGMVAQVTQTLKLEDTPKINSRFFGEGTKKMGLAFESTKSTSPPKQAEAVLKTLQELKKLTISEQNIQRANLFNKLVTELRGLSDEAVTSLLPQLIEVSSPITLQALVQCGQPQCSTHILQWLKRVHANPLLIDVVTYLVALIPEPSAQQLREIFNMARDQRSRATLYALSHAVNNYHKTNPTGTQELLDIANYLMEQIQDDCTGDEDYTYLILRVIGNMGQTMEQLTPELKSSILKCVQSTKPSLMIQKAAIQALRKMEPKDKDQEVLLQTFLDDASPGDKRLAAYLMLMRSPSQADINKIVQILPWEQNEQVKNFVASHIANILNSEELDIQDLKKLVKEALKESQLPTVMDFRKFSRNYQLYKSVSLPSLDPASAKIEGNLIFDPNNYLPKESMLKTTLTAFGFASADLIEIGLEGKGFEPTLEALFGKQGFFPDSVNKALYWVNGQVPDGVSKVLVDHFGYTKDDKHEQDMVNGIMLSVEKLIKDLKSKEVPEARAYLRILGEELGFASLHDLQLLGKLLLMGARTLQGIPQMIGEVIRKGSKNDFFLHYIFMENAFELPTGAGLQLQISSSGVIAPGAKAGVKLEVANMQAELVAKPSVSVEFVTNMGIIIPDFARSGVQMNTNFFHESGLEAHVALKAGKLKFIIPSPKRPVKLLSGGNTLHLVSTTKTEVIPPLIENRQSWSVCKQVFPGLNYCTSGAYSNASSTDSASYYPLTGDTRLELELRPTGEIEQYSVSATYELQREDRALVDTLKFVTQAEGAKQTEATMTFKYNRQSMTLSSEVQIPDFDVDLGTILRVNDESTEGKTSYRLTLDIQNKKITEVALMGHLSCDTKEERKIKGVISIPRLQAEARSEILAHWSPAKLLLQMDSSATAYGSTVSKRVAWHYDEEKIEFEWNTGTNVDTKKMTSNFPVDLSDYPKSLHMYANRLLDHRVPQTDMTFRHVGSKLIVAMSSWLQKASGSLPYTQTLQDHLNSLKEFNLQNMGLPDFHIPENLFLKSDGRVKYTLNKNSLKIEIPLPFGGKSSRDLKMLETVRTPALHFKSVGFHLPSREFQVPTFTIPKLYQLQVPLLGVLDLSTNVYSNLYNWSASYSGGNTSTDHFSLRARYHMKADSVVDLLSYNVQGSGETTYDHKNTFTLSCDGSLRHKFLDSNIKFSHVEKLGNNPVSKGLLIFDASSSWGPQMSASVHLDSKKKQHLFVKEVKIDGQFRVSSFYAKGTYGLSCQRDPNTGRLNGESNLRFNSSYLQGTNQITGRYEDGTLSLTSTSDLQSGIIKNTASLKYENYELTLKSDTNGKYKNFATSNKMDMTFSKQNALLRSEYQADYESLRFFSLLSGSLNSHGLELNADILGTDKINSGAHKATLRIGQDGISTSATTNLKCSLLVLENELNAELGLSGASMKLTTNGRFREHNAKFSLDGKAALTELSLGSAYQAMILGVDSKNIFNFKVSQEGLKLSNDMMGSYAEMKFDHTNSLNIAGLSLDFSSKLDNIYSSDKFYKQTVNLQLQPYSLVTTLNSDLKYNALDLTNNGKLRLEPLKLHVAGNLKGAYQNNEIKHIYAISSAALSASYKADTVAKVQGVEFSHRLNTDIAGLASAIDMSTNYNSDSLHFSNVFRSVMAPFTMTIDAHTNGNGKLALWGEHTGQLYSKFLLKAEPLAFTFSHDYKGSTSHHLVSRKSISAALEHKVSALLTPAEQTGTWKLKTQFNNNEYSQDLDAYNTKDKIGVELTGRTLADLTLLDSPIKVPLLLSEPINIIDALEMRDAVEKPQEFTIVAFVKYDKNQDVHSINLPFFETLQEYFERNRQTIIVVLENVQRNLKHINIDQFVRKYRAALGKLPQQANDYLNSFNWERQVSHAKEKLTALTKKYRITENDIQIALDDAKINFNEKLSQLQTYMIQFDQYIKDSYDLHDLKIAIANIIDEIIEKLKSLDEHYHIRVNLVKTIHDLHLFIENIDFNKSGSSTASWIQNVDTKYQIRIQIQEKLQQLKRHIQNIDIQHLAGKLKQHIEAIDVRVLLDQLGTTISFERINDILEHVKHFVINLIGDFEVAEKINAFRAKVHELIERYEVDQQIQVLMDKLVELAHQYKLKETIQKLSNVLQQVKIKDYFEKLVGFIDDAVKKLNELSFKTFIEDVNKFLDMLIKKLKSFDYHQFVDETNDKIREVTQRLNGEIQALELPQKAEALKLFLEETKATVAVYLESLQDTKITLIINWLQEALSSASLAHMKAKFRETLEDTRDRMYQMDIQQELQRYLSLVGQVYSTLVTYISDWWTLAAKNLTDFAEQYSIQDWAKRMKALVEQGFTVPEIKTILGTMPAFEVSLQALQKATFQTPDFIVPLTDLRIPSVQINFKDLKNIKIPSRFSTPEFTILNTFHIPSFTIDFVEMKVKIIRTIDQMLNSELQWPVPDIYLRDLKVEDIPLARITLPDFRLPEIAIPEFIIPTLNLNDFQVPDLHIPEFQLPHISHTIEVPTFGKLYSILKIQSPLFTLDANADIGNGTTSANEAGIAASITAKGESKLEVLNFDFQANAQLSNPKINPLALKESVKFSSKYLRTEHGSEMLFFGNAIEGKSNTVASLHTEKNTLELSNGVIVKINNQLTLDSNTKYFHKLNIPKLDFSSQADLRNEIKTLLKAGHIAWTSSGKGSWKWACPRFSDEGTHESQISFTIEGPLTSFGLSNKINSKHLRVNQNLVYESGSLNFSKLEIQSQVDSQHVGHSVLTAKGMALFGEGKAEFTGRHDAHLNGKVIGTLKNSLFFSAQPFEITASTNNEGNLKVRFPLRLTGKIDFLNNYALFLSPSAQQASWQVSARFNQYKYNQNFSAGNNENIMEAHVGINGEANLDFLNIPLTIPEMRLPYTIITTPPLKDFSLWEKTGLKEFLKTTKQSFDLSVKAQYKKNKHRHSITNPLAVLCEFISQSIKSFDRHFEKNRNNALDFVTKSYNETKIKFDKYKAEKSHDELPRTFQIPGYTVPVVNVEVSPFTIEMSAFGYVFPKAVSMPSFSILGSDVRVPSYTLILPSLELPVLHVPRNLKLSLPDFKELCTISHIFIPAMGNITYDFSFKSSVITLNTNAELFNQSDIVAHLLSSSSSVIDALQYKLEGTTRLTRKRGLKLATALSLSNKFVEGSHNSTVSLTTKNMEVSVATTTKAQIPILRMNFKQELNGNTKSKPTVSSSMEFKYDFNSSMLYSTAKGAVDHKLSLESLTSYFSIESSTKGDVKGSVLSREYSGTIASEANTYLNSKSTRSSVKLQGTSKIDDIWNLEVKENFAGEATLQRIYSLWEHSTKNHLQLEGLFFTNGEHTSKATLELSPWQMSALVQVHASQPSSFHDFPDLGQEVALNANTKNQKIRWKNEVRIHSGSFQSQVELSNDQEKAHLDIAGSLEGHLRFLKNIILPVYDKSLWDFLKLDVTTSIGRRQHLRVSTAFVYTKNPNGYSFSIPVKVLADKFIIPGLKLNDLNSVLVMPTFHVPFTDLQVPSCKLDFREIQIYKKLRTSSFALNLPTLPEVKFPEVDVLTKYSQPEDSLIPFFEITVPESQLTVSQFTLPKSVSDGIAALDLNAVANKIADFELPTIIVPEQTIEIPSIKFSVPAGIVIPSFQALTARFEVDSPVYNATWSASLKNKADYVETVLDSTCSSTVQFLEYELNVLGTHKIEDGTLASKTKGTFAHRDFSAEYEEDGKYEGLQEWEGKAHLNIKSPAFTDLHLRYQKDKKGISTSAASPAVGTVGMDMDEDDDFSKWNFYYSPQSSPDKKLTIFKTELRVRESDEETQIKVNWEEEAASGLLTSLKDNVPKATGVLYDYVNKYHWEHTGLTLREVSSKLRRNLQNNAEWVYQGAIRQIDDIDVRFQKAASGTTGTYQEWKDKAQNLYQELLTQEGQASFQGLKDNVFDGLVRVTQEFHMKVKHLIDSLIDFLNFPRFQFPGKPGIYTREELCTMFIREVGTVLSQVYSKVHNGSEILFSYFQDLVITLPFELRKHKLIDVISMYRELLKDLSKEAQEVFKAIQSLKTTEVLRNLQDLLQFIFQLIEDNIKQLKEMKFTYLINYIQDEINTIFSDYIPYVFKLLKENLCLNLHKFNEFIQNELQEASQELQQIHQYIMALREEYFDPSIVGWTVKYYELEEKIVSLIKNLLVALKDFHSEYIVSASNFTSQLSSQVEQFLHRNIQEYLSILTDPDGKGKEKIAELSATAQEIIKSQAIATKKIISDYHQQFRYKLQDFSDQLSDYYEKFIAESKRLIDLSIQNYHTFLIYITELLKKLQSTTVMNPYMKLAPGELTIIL

[5] = target: T3, immobilized LDL; experiment: Binding of 125I-MTP / MTP fractions to immobilized LDL
Experimental: The effect of phospholipids on the kinetic parameters of apoB-MTP binding was examined. […] No significant binding of LDL to MTP could be observed at low concentrations (≦3 nM) in the absence of vesicles. However, the effect of vesicles was significant at ≦12.5 nM of LDL. […] In four other experiments, decreases in Kd ranged between 1.5- to 3-fold. The effect of phospholipid vesicles on the binding of ^125I-MTP to immobilized LDL was also examined.
To study the binding of lipid associated MTP with LDL, peaks A, B, and C were pooled, dialyzed and then used to study binding to immobilized LDL. The binding of lipid-poor MTP (peak B), which might have acquired few lipid molecules during its incubation with lipid vesicles, to LDL was increased (70%, P<0.005) compared to the binding of MTP not incubated with lipids (peak A). […] These studies indicate that lipid-associated MTP binds better to LDL as compared to lipid-poor and lipid-free MTP. It is believed that MTP forms stable complexes with phospholipid vesicles and these MTP/lipid complexes have higher affinity for apoB.
Target sequence in this assay (P04114 28-4563, one chain of several): as the sequence (P04114 28-4563) above

O=C1c2ccccc2CN1C1CCN(CCC(c2ccccc2)c2ccccc2)CC1 [BMS-200150]
inhibition of triglyceride transfer activity [1]: 60% | effect on LDL/MTP binding [2]: did not effect LDL/MTP binding

CC(C)CCC[C@@H](C)[C@H]1CC[C@H]2[C@@H]3CC=C4C[C@@H](O)CC[C@]4(C)[C@H]3CC[C@]12C [cholesterol]
effect of inclusion in PC vesicles on PC-stimulated binding of LDL to MTP [3]: no additional effect

apoA-I/lipid complexes: apoA-I incubated with lipid vesicles, complexes isolated by ultracentrifugation
binding to immobilized LDL compared to free apoA-I [4]: significantly less

peak B: lipid-poor MTP fraction recovered after incubation with PC vesicles, fractions 21-24
increase of binding to immobilized LDL compared to MTP not incubated with lipids (peak A) ([5]; P<0.005): 70%

peak C: MTP associated with lipid vesicles, fractions 3-9
amount bound to LDL compared to MTP alone [5]: three-fold higher

phosphatidyl inositol [PI]
effect of inclusion in PC vesicles on PC-stimulated binding of LDL to MTP [3]: significantly decreased

phosphatidyl serine [PS]
effect of inclusion in PC vesicles on PC-stimulated binding of LDL to MTP [3]: significantly decreased

triglycerides [TG]
effect on LDL binding to MTP ([3]; PC vesicles with or without TG): no additional effect

— patent US20020045271A1, “COMPOUNDS AND METHODS FOR IDENTIFYING COMPOUNDS THAT INTERACT WITH MICROSOMAL TRIGLYCERIDE TRANSFER PROTEIN BINDING SITES ON APOLIPOPROTEIN B AND MODULATE LIPID BIOSYNTHESIS” (LICATA AND TYRRELL P.C., priority 1998, published 2002)
